pIC50: −log10 of the molar value.
Legend:
Type in all cases: cell-based
human TLR9 = human TLR9 (Homo sapiens (Human), UniProt Q9NR96); assay: TLR9 inhibition reporter assay (HEK-Blue, SEAP); details: HEK-Blue cells overexpressing human TLR9, ODN2006 5 nM stimulation
Method in brief: (§1)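 HEK-Blue cells overexpressing the receptor carry a SEAP reporter under IFN-β minimal promoter with NF-κB/AP-1 sites. Compounds (0.05 nM–50 μM final) were preincubated 30 min at room temperature, then cells were stimulated with gardiquimod 7.5 μM (TLR7), R848 15.9 μM (TLR8) or ODN2006 5 nM (TLR9) for 22 h at 37 °C.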

human TLR8 = human TLR8 (Homo sapiens (Human), UniProt Q9NR97); assay: TLR8 inhibition reporter assay (HEK-Blue, SEAP); details: HEK-Blue cells overexpressing human TLR8, R848 15.9 μM stimulation
human TLR8, sequence (Q9NR97 27-1041): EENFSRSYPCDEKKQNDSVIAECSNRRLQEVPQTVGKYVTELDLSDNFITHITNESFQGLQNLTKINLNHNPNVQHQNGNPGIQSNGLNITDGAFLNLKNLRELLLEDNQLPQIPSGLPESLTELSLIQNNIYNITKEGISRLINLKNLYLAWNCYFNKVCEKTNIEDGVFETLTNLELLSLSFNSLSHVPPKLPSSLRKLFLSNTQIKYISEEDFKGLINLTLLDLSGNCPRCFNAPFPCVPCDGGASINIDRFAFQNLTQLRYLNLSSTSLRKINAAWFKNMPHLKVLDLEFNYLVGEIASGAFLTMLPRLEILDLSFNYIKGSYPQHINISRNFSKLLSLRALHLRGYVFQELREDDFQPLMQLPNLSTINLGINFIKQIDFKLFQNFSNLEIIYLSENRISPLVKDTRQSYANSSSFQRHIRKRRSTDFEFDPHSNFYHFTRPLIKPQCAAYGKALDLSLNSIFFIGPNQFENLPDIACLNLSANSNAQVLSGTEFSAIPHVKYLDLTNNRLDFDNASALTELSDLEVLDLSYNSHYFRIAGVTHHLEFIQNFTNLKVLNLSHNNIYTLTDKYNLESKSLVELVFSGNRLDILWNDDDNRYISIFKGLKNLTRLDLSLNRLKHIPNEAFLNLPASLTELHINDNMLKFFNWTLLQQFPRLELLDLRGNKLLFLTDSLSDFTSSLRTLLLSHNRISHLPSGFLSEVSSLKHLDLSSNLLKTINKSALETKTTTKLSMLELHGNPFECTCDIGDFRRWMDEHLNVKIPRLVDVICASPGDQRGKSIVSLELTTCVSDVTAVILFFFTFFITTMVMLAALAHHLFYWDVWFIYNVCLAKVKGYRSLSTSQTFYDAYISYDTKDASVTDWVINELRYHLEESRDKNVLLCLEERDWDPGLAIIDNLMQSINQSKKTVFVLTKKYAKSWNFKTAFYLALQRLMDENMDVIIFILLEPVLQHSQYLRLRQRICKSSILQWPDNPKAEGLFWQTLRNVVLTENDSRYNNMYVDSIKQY
Method in brief: as §1

human TLR7 = human TLR7 (Homo sapiens (Human), UniProt Q9NYK1); assay: TLR7 inhibition reporter assay (HEK-Blue, SEAP); details: HEK-Blue cells overexpressing human TLR7, gardiquimod 7.5 μM stimulation
human TLR7, sequence (Q9NYK1 27-1049): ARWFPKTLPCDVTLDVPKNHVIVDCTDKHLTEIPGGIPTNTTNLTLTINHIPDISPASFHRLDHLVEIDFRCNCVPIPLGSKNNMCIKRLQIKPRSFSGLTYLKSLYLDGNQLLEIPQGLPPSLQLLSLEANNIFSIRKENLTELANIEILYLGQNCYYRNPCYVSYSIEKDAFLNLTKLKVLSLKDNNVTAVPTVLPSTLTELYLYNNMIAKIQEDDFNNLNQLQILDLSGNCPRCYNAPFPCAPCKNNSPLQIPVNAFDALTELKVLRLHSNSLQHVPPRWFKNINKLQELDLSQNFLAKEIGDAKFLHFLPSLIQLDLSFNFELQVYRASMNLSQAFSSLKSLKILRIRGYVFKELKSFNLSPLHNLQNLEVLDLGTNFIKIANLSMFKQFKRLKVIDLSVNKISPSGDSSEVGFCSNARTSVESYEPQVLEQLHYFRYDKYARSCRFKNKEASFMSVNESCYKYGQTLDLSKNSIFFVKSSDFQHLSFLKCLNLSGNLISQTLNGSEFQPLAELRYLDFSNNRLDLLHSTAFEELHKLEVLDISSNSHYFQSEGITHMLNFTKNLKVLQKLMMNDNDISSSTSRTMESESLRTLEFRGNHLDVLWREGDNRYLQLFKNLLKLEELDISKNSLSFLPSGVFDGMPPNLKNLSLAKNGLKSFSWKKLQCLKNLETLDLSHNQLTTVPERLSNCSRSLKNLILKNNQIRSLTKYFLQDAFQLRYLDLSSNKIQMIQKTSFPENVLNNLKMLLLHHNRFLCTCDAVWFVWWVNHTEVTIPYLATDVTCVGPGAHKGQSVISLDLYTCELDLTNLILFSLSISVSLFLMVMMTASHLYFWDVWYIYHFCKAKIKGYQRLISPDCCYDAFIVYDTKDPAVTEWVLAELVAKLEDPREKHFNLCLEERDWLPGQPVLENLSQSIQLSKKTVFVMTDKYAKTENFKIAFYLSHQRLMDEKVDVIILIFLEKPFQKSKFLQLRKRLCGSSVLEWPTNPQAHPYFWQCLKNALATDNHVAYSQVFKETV
Method in brief: as §1

human TLR9, sequence (Q9NR96 26-1032): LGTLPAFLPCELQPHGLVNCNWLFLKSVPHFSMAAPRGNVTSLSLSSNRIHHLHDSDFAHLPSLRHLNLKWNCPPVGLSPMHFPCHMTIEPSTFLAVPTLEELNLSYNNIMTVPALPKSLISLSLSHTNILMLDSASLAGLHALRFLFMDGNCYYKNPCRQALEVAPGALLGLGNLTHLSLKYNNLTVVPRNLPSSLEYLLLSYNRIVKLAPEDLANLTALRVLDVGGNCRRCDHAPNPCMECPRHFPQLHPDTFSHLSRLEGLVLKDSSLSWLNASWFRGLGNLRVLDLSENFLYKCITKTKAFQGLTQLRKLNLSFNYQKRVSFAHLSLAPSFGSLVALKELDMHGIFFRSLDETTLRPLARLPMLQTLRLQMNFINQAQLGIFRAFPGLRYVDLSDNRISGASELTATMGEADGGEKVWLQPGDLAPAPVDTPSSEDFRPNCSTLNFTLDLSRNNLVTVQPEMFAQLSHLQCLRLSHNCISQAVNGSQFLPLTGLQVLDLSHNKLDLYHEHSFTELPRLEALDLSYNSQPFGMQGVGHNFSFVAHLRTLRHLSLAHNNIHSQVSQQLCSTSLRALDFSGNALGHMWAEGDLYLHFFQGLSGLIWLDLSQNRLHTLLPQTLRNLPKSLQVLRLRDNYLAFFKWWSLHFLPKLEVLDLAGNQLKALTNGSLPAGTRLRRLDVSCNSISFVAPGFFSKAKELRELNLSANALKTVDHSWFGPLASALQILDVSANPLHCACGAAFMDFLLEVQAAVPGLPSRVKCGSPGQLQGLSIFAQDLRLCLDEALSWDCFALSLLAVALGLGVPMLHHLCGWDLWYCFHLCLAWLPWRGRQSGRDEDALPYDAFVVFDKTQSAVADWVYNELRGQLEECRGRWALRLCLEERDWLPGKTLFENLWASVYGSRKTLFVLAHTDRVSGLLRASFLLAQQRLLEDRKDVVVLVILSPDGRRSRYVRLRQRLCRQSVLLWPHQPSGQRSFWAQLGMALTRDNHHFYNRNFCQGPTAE

| Compound | pIC50 (human TLR9) | pIC50 (human TLR8) | pIC50 (human TLR7) |
| --- | --- | --- | --- |
| CC(C)c1c(-c2ccnc3[nH]ncc23)[nH]c2ccc(-c3ccnn3C)cc12 [Example 428, 4-(3-isopropyl-5-(1-methyl-1H-pyrazol-5-yl)-1H-indol-2-yl)-1H-pyrazolo[3,4-b]pyridine] | 4.84 | 7.92 | 6.71 |
| COc1ccc(-c2[nH]c3ccc(-c4cnc(N5CCN(CCC(C)O)CC5)nc4)cc3c2C(C)C)cc1OC (stereo not drawn) [Example 431, 4-(4-(5-(2-(3,4-dimethoxyphenyl)-3-isopropyl-1H-indol-5-yl)pyrimidin-2-yl)piperazin-1-yl)butan-2-ol] | 5.48 | 7.51 | 6.84 |
| COc1ccc(-c2[nH]c3ccc(-c4cnc(N5CCN(C)CC5)nc4)cc3c2C(C)C)cc1OC [Example 432, 2-(3,4-dimethoxyphenyl)-3-isopropyl-5-(2-(4-methylpiperazin-1-yl)pyrimidin-5-yl)-1H-indole] | 5.49 | 7.77 | 7.19 |
| COc1cc(-c2ccc3[nH]c(-c4ccnc5[nH]ncc45)c(C(C)C)c3c2)cnc1OC [Example 434, 4-(5-(5,6-dimethoxypyridin-3-yl)-3-isopropyl-1H-indol-2-yl)-1H-pyrazolo[3,4-b]pyridine] | 4.34 | 7.27 | 6.91 |
| COc1ccc(-c2[nH]c3ccc(-c4cnc(N5CCN(C6CCCC6)CC5)nc4)cc3c2C(C)C)cc1OC [Example 435, 5-(2-(4-cyclopentylpiperazin-1-yl)pyrimidin-5-yl)-2-(3,4-dimethoxyphenyl)-3-isopropyl-1H-indole] | 5.44 | 6.62 | 5.81 |
| COc1ccc(-c2[nH]c3ccc(-c4cnc(N5CCN(C6CCC6)CC5)nc4)cc3c2C(C)C)cc1OC [Example 436, 5-(2-(4-cyclobutylpiperazin-1-yl)pyrimidin-5-yl)-2-(3,4-dimethoxyphenyl)-3-isopropyl-1H-indole] | 4.95 | 6.48 | 5.83 |
| CC(C)c1c(-c2ccnc3[nH]ncc23)[nH]c2ccc(-c3c[nH]nc3C(F)(F)F)cc12 [Example 438, 4-(3-isopropyl-5-(3-(trifluoromethyl)-1H-pyrazol-4-yl)-1H-indol-2-yl)-1H-pyrazolo[3,4-b]pyridine] | 4.42 | 8.00 | 6.02 |
| CC(C)c1c(-c2ccnc3[nH]ncc23)[nH]c2ccc(-c3noc(C[C@@H]4CCCN4)n3)cc12 [Example 439, (S)-3-(3-isopropyl-2-(1H-pyrazolo[3,4-b]pyridin-4-yl)-1H-indol-5-yl)-5-(pyrrolidin-2-ylmethyl)-1,2,4-oxadiazole] | 5.67 | 8.48 | 6.87 |
| CCc1c(-c2ccc(OC)c(OC)c2)[nH]c2ccc(-c3noc([C@@H](N)Cc4c[nH]cn4)n3)cc12 [Example 440, (S)-1-(3-(2-(3,4-dimethoxyphenyl)-3-ethyl-1H-indol-5-yl)-1,2,4-oxadiazol-5-yl)-2-(1H-imidazol-4-yl)ethan-1-amine] | 4.70 | 6.91 | 6.19 |
| CCc1c(-c2ccc(OC)c(OC)c2)[nH]c2ccc(-c3noc(C4CC(=O)N(C)C4)n3)cc12 (stereo not drawn) [Example 441, 4-(3-(2-(3,4-dimethoxyphenyl)-3-ethyl-1H-indol-5-yl)-1,2,4-oxadiazol-5-yl)-1-methylpyrrolidin-2-one] | < 4.30 | 6.45 | 5.48 |
| CCc1c(-c2ccc(OC)c(OC)c2)[nH]c2ccc(-c3noc([C@H]4CCC[C@@]4(C)N)n3)cc12 [Example 442, (1R,2S)-2-(3-(2-(3,4-dimethoxyphenyl)-3-ethyl-1H-indol-5-yl)-1,2,4-oxadiazol-5-yl)-1-methylcyclopentan-1-amine] | 5.34 | 7.05 | 6.04 |
| CCc1c(-c2ccc(OC)c(OC)c2)[nH]c2ccc(-c3noc(C4CCN(Cc5ccccc5)C4)n3)cc12 (stereo not drawn) [Example 443, 5-(1-benzylpyrrolidin-3-yl)-3-(2-(3,4-dimethoxyphenyl)-3-ethyl-1H-indol-5-yl)-1,2,4-oxadiazole] | 4.99 | 6.13 | 5.48 |
| CCc1c(-c2ccc(OC)c(OC)c2)[nH]c2ccc(-c3noc(C4CCN(Cc5ccccc5)CC4)n3)cc12 [Example 444, 5-(1-benzylpiperidin-4-yl)-3-(2-(3,4-dimethoxyphenyl)-3-ethyl-1H-indol-5-yl)-1,2,4-oxadiazole] | 4.95 | 6.35 | 5.50 |
| CCc1c(-c2ccc(OC)c(OC)c2)[nH]c2ccc(-c3noc(C4CCN(C(C)C)CC4)n3)cc12 [Example 445, 3-(2-(3,4-dimethoxyphenyl)-3-ethyl-1H-indol-5-yl)-5-(1-isopropylpiperidin-4-yl)-1,2,4-oxadiazole] | 5.73 | 7.43 | 6.47 |
| CC(C)c1c(-c2ccnc3[nH]ncc23)[nH]c2ccc(-c3noc(C4CCN(C(=O)CN(C)C)CC4)n3)cc12 [Example 446, 2-(dimethylamino)-1-(4-(3-(3-isopropyl-2-(1H-pyrazolo[3,4-b]pyridin-4-yl)-1H-indol-5-yl)-1,2,4-oxadiazol-5-yl)piperidin-1-yl)ethan-1-one] | 5.99 | 8.40 | 7.57 |
| CCc1c(-c2ccc(OC)c(OC)c2)[nH]c2ccc(-c3noc(CCC4CCNCC4)n3)cc12 [Example 447, 3-(2-(3,4-dimethoxyphenyl)-3-ethyl-1H-indol-5-yl)-5-(2-(piperidin-4-yl)ethyl)-1,2,4-oxadiazole] | 5.46 | 6.70 | 6.13 |
| CCc1c(-c2ccnc(C)c2)[nH]c2ccc(-c3noc(CCC4CCNCC4)n3)cc12 [Example 448, 3-(3-ethyl-2-(2-methylpyridin-4-yl)-1H-indol-5-yl)-5-(2-(piperidin-4-yl)ethyl)-1,2,4-oxadiazole] | 5.75 | 7.30 | 6.49 |
| CCc1c(-c2ccnc(C)c2)[nH]c2ccc(-c3noc(CCC4CCN(C(C)C)CC4)n3)cc12 [Example 449, 3-(3-ethyl-2-(2-methylpyridin-4-yl)-1H-indol-5-yl)-5-(2-(1-isopropylpiperidin-4-yl)ethyl)-1,2,4-oxadiazole] | 5.87 | 7.43 | 6.62 |
| CCc1c(-c2ccc(OC)c(OC)c2)[nH]c2ccc(-c3noc(C4CCNC4)n3)cc12 (stereo not drawn) [Example 450, 3-(2-(3,4-dimethoxyphenyl)-3-ethyl-1H-indol-5-yl)-5-(pyrrolidin-3-yl)-1,2,4-oxadiazole] | 5.77 | 7.72 | 6.92 |
| CCc1c(-c2ccc(OC)c(OC)c2)[nH]c2ccc(-c3noc(CCOC)n3)cc12 [Example 451, 3-(2-(3,4-dimethoxyphenyl)-3-ethyl-1H-indol-5-yl)-5-(2-methoxyethyl)-1,2,4-oxadiazole] | < 4.30 | 5.89 | 5.40 |
| CCc1c(-c2ccc(OC)c(OC)c2)[nH]c2ccc(-c3noc([C@H]4C[C@H]5CC[C@@H](C4)N5)n3)cc12 [Example 452, 5-((1R,3r,5S)-8-azabicyclo[3.2.1]octan-3-yl)-3-(2-(3,4-dimethoxyphenyl)-3-ethyl-1H-indol-5-yl)-1,2,4-oxadiazole] | 5.71 | 7.28 | 6.55 |
| CCc1c(-c2ccnc(C)c2)[nH]c2ccc(-c3noc(CN(C)C)n3)cc12 [Example 453, 1-(3-(3-ethyl-2-(2-methylpyridin-4-yl)-1H-indol-5-yl)-1,2,4-oxadiazol-5-yl)-N,N-dimethylmethanamine] | 4.63 | 7.49 | 6.15 |
| CCc1c(-c2ccc(OC)c(OC)c2)[nH]c2ccc(-c3noc(CCN(C)C)n3)cc12 [Example 454, 2-(3-(2-(3,4-dimethoxyphenyl)-3-ethyl-1H-indol-5-yl)-1,2,4-oxadiazol-5-yl)-N,N-dimethylethan-1-amine] | 4.95 | 7.72 | 6.51 |
| CCc1c(-c2ccnc(C)c2)[nH]c2ccc(-c3noc([C@H]4CCNC4)n3)cc12 [Example 455, (S)-3-(3-ethyl-2-(2-methylpyridin-4-yl)-1H-indol-5-yl)-5-(pyrrolidin-3-yl)-1,2,4-oxadiazole] | 4.80 | 7.57 | 5.65 |
| CCc1c(-c2ccnc(C)c2)[nH]c2ccc(-c3noc(C4CCNC4)n3)cc12 (stereo not drawn) [Example 456, 3-(3-ethyl-2-(2-methylpyridin-4-yl)-1H-indol-5-yl)-5-(pyrrolidin-3-yl)-1,2,4-oxadiazole] | 6.23 | 7.74 | 7.11 |
| CCc1c(-c2ccnc(C)c2)[nH]c2ccc(-c3noc(C4CCCNC4)n3)cc12 (stereo not drawn) [Example 457, 3-(3-ethyl-2-(2-methylpyridin-4-yl)-1H-indol-5-yl)-5-(piperidin-3-yl)-1,2,4-oxadiazole] | 6.16 | 7.96 | 6.64 |
| CCc1c(-c2ccnc(C)c2)[nH]c2ccc(-c3noc(C4CNC4)n3)cc12 [Example 458, 5-(azetidin-3-yl)-3-(3-ethyl-2-(2-methylpyridin-4-yl)-1H-indol-5-yl)-1,2,4-oxadiazole] | 5.98 | 7.43 | 6.79 |
| CCc1c(-c2ccc(OC)c(OC)c2)[nH]c2ccc(-c3noc(C4CCNCC4)n3)cc12 [Example 459, 3-(2-(3,4-dimethoxyphenyl)-3-ethyl-1H-indol-5-yl)-5-(piperidin-4-yl)-1,2,4-oxadiazole] | 5.66 | 7.72 | 6.51 |

From patent publication US11420958B2, “Aryl and heteroaryl substituted indole compounds” (BRISTOL-MYERS SQUIBB COMPANY, priority 2017, dated 2022)
